Data: PubChem BioAssay (NCI)
“And” between values parts separate entries of the source, which are not always exact repeats. Identical values can stand only once.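 Five concentrations, 48 hours, 96-well plates. GI50 marks 50% less growth. TGI denotes the concentration required for complete inhibition of growth.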

Assays:
Assay in all cases: NCI tumour cell line growth inhibition, 48 h
HOP-18 NSCLC = test system: HOP-18 NSCLC
LXFL 529 NSCLC = test system: LXFL 529 NSCLC
KM20L2 colon = test system: KM20L2 colon
DLD-1 colon = test system: DLD-1 colon
XF 498 CNS = test system: XF 498 CNS
SNB-78 CNS = test system: SNB-78 CNS
DMS 273 small cell lung = test system: DMS 273 small cell lung
MDA-N = test system: MDA-N
SN12K1 renal = test system: SN12K1 renal
RXF-631 renal = test system: RXF-631 renal

Row | SMILES | TGI (HOP-18 NSCLC) [µM] | TGI (LXFL 529 NSCLC) [µM] | TGI (KM20L2 colon) | TGI (DLD-1 colon) | TGI (XF 498 CNS) | TGI (SNB-78 CNS) [µM] | TGI (DMS 273 small cell lung) | TGI (MDA-N) | also measured
1 | NCCn1ccc(NC(c2ccccc2)(c2ccccc2)c2ccccc2)nc1=O | > 100 | 30.3 | 32.2 µM | > 100 µM | 26.1 µM | 42.5 | – | – | –
2 | COc1ccc2nc3ccccc3c(NCCCCCN(CCCl)CCCl)c2c1 | > 27.3 | 0.81 | 1.02 µM | 0.793 µM | 0.0717 µM | 2.96 | 0.343 µM | – | –
3 | COc1cc[c]([Sb]([Br])([CH]=C(C)C)([CH]=C(C)C)[CH]=C(C)C)cc1 | – | 39.3 | > 100 µM | > 100 µM | – | – | 23.3 µM | – | GI50 (DMS 273 small cell lung): 3.3 µM; GI50 (LXFL 529 NSCLC): 2.88 µM; GI50 (KM20L2 colon): 5.06 µM; GI50 (DLD-1 colon): 24.1 µM
4 | CC1(C(=O)NCCN(CCNC(=O)C2(C)CC3(C)CC(C)(C2)C(=O)NC3=O)CCNC(=O)C2(C)CC3(C)CC(C)(C2)C(=O)NC3=O)CC2(C)CC(C)(C1)C(=O)NC2=O (configuration not stated) | > 100 | > 100 | > 100 µM | – | > 100 µM | > 100 | > 100 µM | – | –
5 | O=C(N[C@@H]1C=CCC[C@@H]1c1ccccc1)OCc1ccccc1 | 46.9 | 49.8 | 40.6 µM | > 85.6 µM | 35.9 µM | 93 | 32.4 µM | – | –
6 | C/C(=C1/N=C(c2ccccc2)OC1=O)c1ccc(C)cc1 | – | – | – | – | – | – | – | > 100 µM | –
7 | NC(=S)N/N=C1\C(=O)N(CCc2ccccc2)C(=O)C1C(=O)NCCc1ccccc1 (configuration not stated) | > 100 | > 100 | > 100 µM | – | – | > 100 | > 100 µM | – | –
8 | c1ccc(CCCNc2nnnc3ccccc23)cc1 | – | – | – | – | – | – | – | > 100 µM | –
9 | COC1=C(C)C(=O)C2=C(C1=O)C(CO)N1C(C#N)C3CC4C(C1C2N1CCOC41)N3C (configuration not stated) | 0.326 | – | 0.83 µM and 0.104 µM | 0.836 µM and 5.2 µM | 0.0183 µM and 0.0285 µM | – | 0.0722 µM and 0.0676 µM | 0.0156 µM and < 0.0374 µM | TGI (SN12K1 renal): 17.4 µM; GI50 (HOP-18 NSCLC): 0.0484 µM; GI50 (KM20L2 colon): 0.0261 µM; GI50 (XF 498 CNS): 0.00607 µM; TGI (RXF-631 renal): 3.4 µM
10 | O=C(c1ccco1)c1ccccc1C(=O)c1ccco1 | > 100 | > 100 | > 100 µM | > 100 µM | > 100 µM | > 100 | > 100 µM | – | TGI (RXF-631 renal): > 100 µM
11 | Cc1coc2c1CC1OC1(C)CCC1OC1(C)C2 (configuration not stated) | – | – | – | – | – | – | – | > 100 µM | –
12 | Cc1ccc(/C=N/NS(=O)(=O)c2ccccc2)cc1 | > 100 | > 100 | > 100 µM | > 100 µM | > 100 µM | > 100 | > 100 µM | – | TGI (RXF-631 renal): > 100 µM
13 | COc1cc([N+](=O)[O-])c(S(=O)(=O)O)cc1N | – | – | – | – | – | – | – | > 100 µM | –
14 | Cc1cccc(Cl)c1NC(N)=S | 98.6 | > 100 | > 100 µM | > 100 µM | – | > 100 | > 100 µM | – | TGI (RXF-631 renal): > 100 µM
15 | NC1=NN(c2ccccc2)C(=O)C1/C(=N\NC(=O)c1cc2ccccc2cc1O)C(=O)Nc1nc([N+](=O)[O-])cs1 (configuration not stated) | > 100 | > 100 | > 100 µM | > 77.2 µM | > 100 µM | > 100 | > 73.6 µM | – | TGI (RXF-631 renal): > 71.7 µM
16 | CCCCNC(=O)OCC(COc1ccccc1OC)OC(=O)NCCCC (configuration not stated) | > 100 | > 100 | > 100 µM | > 100 µM | > 100 µM | > 100 | > 100 µM | – | TGI (RXF-631 renal): > 100 µM
17 | CN(C)c1ccc(/C=C/c2ccnc3ccc4ccccc4c23)cc1 | – | – | – | – | – | – | – | > 100 µM | –
18 | O=C1NC2(CCCC2)/C(=N\O)C12CCCC2 | > 100 | > 100 | – | > 100 µM | > 100 µM | > 100 | > 100 µM | – | –

Row | SMILES | TGI (HOP-18 NSCLC) [µM] | TGI (LXFL 529 NSCLC) [µM] | TGI (KM20L2 colon) | TGI (DLD-1 colon) | TGI (XF 498 CNS) | TGI (SNB-78 CNS) [µM] | TGI (DMS 273 small cell lung) | TGI (MDA-N) | also measured
19 | CN(C)CCNC(=O)c1cccc2cc([N+](=O)[O-])ccc12 | 4.4 | 1.83 | 0.722 µM | 1.55 µM | 1.04 µM | 1.61 | 0.722 µM | 6.23 µM | –
20 | Clc1ccccc1C1N2CCCCC2[C@@H]2c3[nH]c4ccccc4c3CCN12 (some centres not stated) | > 100 | > 100 | 34.1 µM | 37.5 µM | 35.4 µM | 61.1 | > 100 µM | – | –
21 | O=C(c1ccccn1)c1nc(-c2ccc(Cl)c(Cl)c2)nc2ccc(Cl)cc12 | – | > 100 | > 100 µM | > 100 µM | 55.3 µM | > 100 | > 100 µM | – | –
22 | COc1ccc(OC)c(/C=C/C(=O)C(C)(C)C)c1 | 38.9 | 36.4 | 50.3 µM | 48.4 µM | – | – | 50.9 µM | – | TGI (RXF-631 renal): 85.1 µM
23 | [C-]#[O+].[C-]#[O+].[Ir].[O-]c1ccc2ccccc2c1N=Nc1ccccc1 | 10.3 | – | – | 12.4 µM | 5.18 µM | 53 | – | 18.8 µM | GI50 (HOP-18 NSCLC): 0.313 µM; GI50 (DLD-1 colon): 3.3 µM; GI50 (XF 498 CNS): 2.14 µM; GI50 (SNB-78 CNS): 24.3 µM
24 | O=C1c2ccccc2C(=O)c2c(NC(=O)C(Cl)CCl)cccc21 (configuration not stated) | – | – | – | – | – | – | – | 24.6 µM | –
25 | CN(C)CCNC(=O)c1cccc2ccc(-c3cccnc3)nc12 | 62.9 | – | – | 60.4 µM | – | 72.4 | 13.1 µM | – | TGI (RXF-631 renal): 23.1 µM
26 | C/C=C/C(=O)[C@@H](O)C(C)C | – | > 100 | > 100 µM | – | – | > 100 | > 100 µM | – | –
27 | S=c1nc[nH]c2nc[nH]c12 | 644 | > 720 | 691 µM | > 750 µM | 163 µM | 670 | 565 µM | 636 µM and > 750 µM | TGI (SN12K1 renal): 527 µM; GI50 (MDA-N): 7.85 µM
28 | COc1ccc2[nH]c3c(C)c4cc[n+](C)cc4c(C)c3c2c1 | – | 3.41 | 34.2 µM [middle of 4 runs] | – | – | – | – | > 100 µM and 84.9 µM and 63 µM | GI50 (DMS 273 small cell lung): 0.502 µM and 0.189 µM; GI50 (SN12K1 renal): 0.146 µM; TGI (SN12K1 renal): 2.96 µM and 2.75 µM and 1.85 µM; GI50 (MDA-N): 9.89 µM and 2.19 µM and 14.7 µM; GI50 (LXFL 529 NSCLC): 0.383 µM; GI50 (KM20L2 colon): 1.68 µM and 1.35 µM; GI50 (DLD-1 colon): 0.889 µM and 0.835 µM; GI50 (SNB-78 CNS): 0.478 µM and 0.243 µM
29 | CNS(=O)(=O)c1ccccc1C(=N)c1ccccc1 | – | – | – | – | – | – | – | > 100 µM | –
30 | C[n+]1c2cc(N)ccc2cc2ccc(N)cc21 (tested in a mixture with another compound) | – | – | – | – | – | – | – | 2.06 µM | GI50 (MDA-N): 0.64 µM
31 | CC(C)[C@](O)(C(=O)OCC1=CC[N+]2([O-])CC[C@@H](O)[C@@H]12)[C@H](C)O (some centres not stated) | > 10000 | – | > 10000 µM | > 10000 µM | – | > 10000 | > 10000 µM | > 10000 µM | TGI (SN12K1 renal): > 10000 µM
32 | Cc1cc2c(=O)cc(-c3ccc(C(F)(F)F)cc3)oc2c(C(=O)O)c1C | > 100 | > 100 | > 100 µM | > 100 µM | > 100 µM | > 100 | > 100 µM | – | TGI (RXF-631 renal): > 100 µM
33 | CCOc1ccccc1NC(=O)C(=O)C(C(=O)c1ccc2ccccc2c1)C1OC(=O)c2ccccc21 (configuration not stated) | 36.3 | 19.4 | 77 µM | 33.4 µM | – | 75.8 | 31.7 µM | – | TGI (RXF-631 renal): 22.4 µM
34 | O=c1c2cc(Br)ccc2nc(-c2ccccc2)n1NCC1(O)OCC(O)C(O)C1O (configuration not stated) | – | > 100 | > 100 µM | – | – | > 100 | > 100 µM | – | –
35 | CC(N)(Cc1c[nH]c2ccccc12)C(=O)O (configuration not stated) | – | – | – | – | – | – | – | > 100 µM | –
